Legend:
jugular vein isografts = assay: Neointimal formation in jugular vein isografts (cuff model; H&E and SMA staining, morphological analysis); assay type: in vivo, C57BL/6J mice
Description: Male C57BL/6J mice were purchased from Vital River Laboratory Animal Technology Co. Ltd, Beijing, China, and housed under a 12:12 h light-dark cycle and given free access to food and water. All animal experiments were performed according to National Institutes of Health Guidelines for the Care and Use of Laboratory Animals and approved by the Institutional Animal Care and Usage Committees at Shandong University and the University of South Carolina, USA. The jugular vein transplantation was performed using different male C57BL/6J mice as donors and recipients. Briefly, 12-wk-old male C57BL/6J mice were anesthetized with pentobarbital sodium (50 mg/kg body weight, i.p.). The operation was performed under a dissecting microscope (SZ2-ILST, Olympus Corporation, Tokyo, Japan). The right common carotid artery of a male C57BL/6J mouse was mobilized and divided. A 1-mm cuff with a 1-mm handle (0.65 mm in diameter outside and 0.5 mm inside, F 800/200/100/200, Portex Ltd) was placed on both ends of the artery, and the ends were reverted over the cuff and ligated with an 8-0 silk ligature (130715, 130715, LingQiao). External jugular vein (1 cm) from a donor mouse was harvested and washed with saline solution, and grafted between the 2 ends of the carotid artery without changing the direction of blood flow. The ischemia time of vein segments was less than 15 min. The results are shown in Examples 7-9.
Mice at 0, 1, 3, 7, 14, 21 and 42 days after transplantation (four randomly chosen mice at each time point) were anesthetized with pentobarbital sodium (50 mg/kg body weight, i.p.) and euthanized by exsanguination. […]
From the proximal end, the last section with the cuff tube was counted as #0. […]
(§1) Tissue sections were subjected to hematoxylin and eosin (H&E) or immunofluorescence staining as previously described^41. […] Fluorescent images were acquired by Nikon Eclipse Ti or UltraVIEW®VOX confocal microscope and analyzed with the Volocity software (PerkinElmer, Waltham, Mass., USA). […]

[1] = tested on: resident VSCs (Sca-1+, NFM+, Sox17+ cells) in jugular vein isografts; assay: Immunofluorescence staining of VSC and SMC markers (Sca-1, Ki67, SMA, NFM, Sox17) in jugular vein isografts after drug treatment; assay type: in vivo, C57BL/6J mice
Description: Male C57BL/6J mice were purchased from Vital River Laboratory Animal Technology Co. Ltd, Beijing, China, and housed under a 12:12 h light-dark cycle and given free access to food and water. All animal experiments were performed according to National Institutes of Health Guidelines for the Care and Use of Laboratory Animals and approved by the Institutional Animal Care and Usage Committees at Shandong University and the University of South Carolina, USA. The jugular vein transplantation was performed using different male C57BL/6J mice as donors and recipients. Briefly, 12-wk-old male C57BL/6J mice were anesthetized with pentobarbital sodium (50 mg/kg body weight, i.p.). The operation was performed under a dissecting microscope (SZ2-ILST, Olympus Corporation, Tokyo, Japan). The right common carotid artery of a male C57BL/6J mouse was mobilized and divided. […]
as §1

Sca-1+ VSCs = assay: Sca-1+ cell growth in stem cell growth medium (daily cell count for 8 days; [3H]thymidine uptake); assay type: cell-based, mouse
Description: Aortic adventitial Sca-1^+ cells were isolated and cultured as previously described^24. Briefly, the aortic arch and root together with a proportion of the heart from male 8-wk-old C57BL/6J mice were removed. Under a dissection microscope, adventitial tissues were carefully harvested. The adventitial tissues were cut into pieces (about 0.5 mm^3) and explanted onto a 3.5 cm dish in a CO2 incubator at 37° C. for 2 h. The stem cell growth medium (CellGro SCGM, CellGenix, Germany) containing 10% FBS (Gibco, USA), 10 ng/ml leukemia inhibitory factor (Lif) (Millipore, Temecula, Calif., USA) and 0.1 mmol/L 2-mercaptoethanol (Invitrogen, USA) was added and incubated for 5-7 days. Medium was changed every 2 days. […] The purity and viability of isolated Sca-1^+ cells were evaluated by immunostaining and trypan blue exclusion, respectively. […]
The P5 Sca-1^+ VSCs or P32 RASMCs were serum-starved for 24 h, and then cultured with full stem cell or regular growth medium with or without simvastatin for 24 h. […] The radioactivity was measured as previously described^41.
P7 Sca-1^+ VSCs (4×10^4/well) were seeded in stem cell medium (SCGM+10% FBS+10 ng/ml Lif+0.1 mmol/L 2-mercaptoethanol) with or without simvastatin (3 μmol/L) or Senexin A (2.5 μmol/L) in 6-well plates. […] The number of cells was counted daily for 8 days.

rat aortic SMCs (RASMCs) = assay: RASMC proliferation ([3H]thymidine uptake); assay type: cell-based
Description: Rat aortic SMCs (RASMCs) were isolated from the thoracic aorta and cultured as described elsewhere^40. Enzymatically isolated SMCs from adult male Wistar rats were cultured in high glucose (4.5 g/L) Dulbecco's modified Eagle's medium (DMEM) (Cat#: 11995, Invitrogen, Grand Island, N.Y., USA) with 10% FBS (Invitrogen) in a CO2 incubator at 37° C. Subculture was performed when the cells were grown to the 70˜80% confluent state. We used the RASMCs at passage (P) 32 to do the [^3H]thymidine uptake assay. The P5 Sca-1^+ VSCs or P32 RASMCs were serum-starved for 24 h, and then cultured with full stem cell or regular growth medium with or without simvastatin for 24 h. [^3H]thymidine (1 μCi/ml) were added during the last 4 h of culture. The radioactivity was measured as previously described^41. […] Serum-starved RASMCs at passage 32 were treated with or without 10% FBS and Senexin (Senx A, 2.5 μM) for 24 h. n=4, *p<0.05 vs. control (−) in the same group.

[2] = Senexin B, concentration not given

CN1CCN(C(=O)c2ccc3cc(CCNc4ncnc5ccc(C#N)cc45)ccc3c2)CC1 [Senexin B]
neointimal formation in vein isografts (jugular vein isografts; Senexin B 20 mg/kg/d intragastric, started 3 days prior to transplantation, 4 wk): suppressed neointimal formation
Sca-1+ cell differentiation into SMCs ([1]; Senexin B 20 mg/kg/d intragastric from 3 days prior, 14 and 28 days): inhibited
Sca-1+ cell growth (Sca-1+ VSCs; [2]): inhibited
SMC proliferation (rat aortic SMCs (RASMCs); [2]): had no impact

N#Cc1ccc2ncnc(NCCc3ccccc3)c2c1 [Senexin A]
neointimal formation in vein isografts (jugular vein isografts; Senexin A (3 μmon) peri-vascular in Pluronic F-127 gel immediately after transplantation, 4 weeks): suppressed neointimal formation
duration of inhibitory effect on neointimal formation in vein grafts (jugular vein isografts; short-term peri-vascular Senexin A, after transplantation): 100 days
Sca-1+ cell differentiation into SMCs ([1]; local Senexin A, 7 days): inhibited
Sca-1+ cell proliferation (Sca-1+ VSCs; Senexin A 2.5 μM, growth curve 8 days): suppressed
rat aortic SMC (RASMC) growth (rat aortic SMCs (RASMCs); Senexin A 2.5 μM, 24 h, 10% FBS, passage 32): without affecting
